According to patent publication US20090082326A1, “SOLUBLE DOSAGE FORMS CONTAINING CEPHEM DERIVATIVES SUITABLE FOR PARENTERAL ADMINISTRATION” (Forest Laboratories Holdings Limited, priority 2007, published 2009):

Experiments:
Type in all cases: physicochemical
[1] = One hour kinetic solubility in DL arginine mixtures; conditions: 25 °C, aqueous buffer, thermodynamic from solid
[2] = One hour kinetic solubility in histidine mixtures; conditions: USP buffer with histidine, 25 °C, aqueous buffer, thermodynamic from solid
[3] = One hour kinetic solubility in acetic acid/sodium acetate ion mixtures; conditions: 25 °C, thermodynamic from solid
[4] = One hour kinetic solubility in L-arginine mixtures; conditions: 25 °C, aqueous buffer, thermodynamic from solid
[5] = One hour kinetic solubility in citric acid/sodium citrate ion mixtures; conditions: 25 °C, aqueous buffer, thermodynamic from solid
[6] = pH solubility profile: one hour and three hour kinetic solubility in USP buffers at 0.05 M; conditions: aqueous buffer, thermodynamic from solid; for solubility at 1 h / solubility at 3 h: USP buffer 0.05 M, 25° C.
[7] = Aqueous solubility (stated in the description); conditions: water

CC(=O)[O-].CCO/N=C(\C(=O)N[C@@H]1C(=O)N2C(C(=O)O)=C(Sc3nc(-c4cc[n+](C)cc4)cs3)CS[C@H]12)c1nsc(NP(=O)(O)O)n1.O [ceftaroline fosamil, (6R,7R)-7-[[2(Z)-ethoxyimino-[5-(phosphonoamino)-1,2,4-thiadiazol-3-yl]acetyl]amino]-3-[[4-(1-methyl-pyridinium-4-yl)thiazol-2-yl]sulfanyl]-8-oxo-5-thia-1-azabicyclo[4.2.0]oct-2-en-2-carboxylate monoacetate monohydrate]
solubility at 1 h ([1]; DL arginine mixtures, at DL arginine concentrations of 1.0 M and higher, read-out: solubility): > 200 mg/mL
solubility at 1 h ([1]; USP buffer with DL arginine, DL arginine 0.05 M, 25° C., read-out: Solubility at 1 hr): 13 mg/mL
solubility at 1 h ([1]; USP buffer with DL arginine, DL arginine 0.1 M, 25° C., read-out: Solubility at 1 hr): 19 mg/mL
solubility at 1 h ([1]; USP buffer with DL arginine, DL arginine 0.5 M, 25° C., read-out: Solubility at 1 hr): 142 mg/mL
solubility at 1 h ([1]; USP buffer with DL arginine, DL arginine 1.0 M, 25° C., read-out: Solubility at 1 hr): 233 mg/mL
solubility at 1 h ([1]; USP buffer with DL arginine, DL arginine 2.0 M, 25° C., read-out: Solubility at 1 hr): 226 mg/mL
solubility at 1 h ([2]; histidine 0.05 M): 43 mg/mL
solubility at 1 h ([2]; histidine 0.1 M): 75 mg/mL
solubility at 1 h ([3]; USP buffer with acetic acid/sodium acetate, pH 2.9, aqueous buffer, pH 2.9, acetic acid/sodium acetate 1.0 M, 25° C., read-out: Solubility at 1 hr): 213 mg/mL
solubility at 1 h ([3]; USP buffer with acetic acid/sodium acetate, pH 3.1, aqueous buffer, pH 3.1, acetic acid/sodium acetate 0.5 M, 25° C., read-out: Solubility at 1 hr): 126 mg/mL
solubility at 1 h ([3]; USP buffer with acetic acid/sodium acetate, pH 3.2, aqueous buffer, pH 3.2, acetic acid/sodium acetate 2.0 M, 25° C., read-out: Solubility at 1 hr): 152 mg/mL
solubility at 1 h ([3]; USP buffer with acetic acid/sodium acetate, pH 3.9, aqueous buffer, pH 3.9, acetic acid/sodium acetate 1.0 M, 25° C., read-out: Solubility at 1 hr): 237 mg/mL
solubility at 1 h ([3]; USP buffer with acetic acid/sodium acetate, pH 3.9, aqueous buffer, pH 3.9, acetic acid/sodium acetate 2.0 M, 25° C., read-out: Solubility at 1 hr): 273 mg/mL
solubility at 1 h ([3]; USP buffer with acetic acid/sodium acetate, pH 4.2, aqueous buffer, pH 4.2, acetic acid/sodium acetate 0.5 M, 25° C., read-out: Solubility at 1 hr): 158 mg/mL
solubility at 1 h ([3]; USP buffer with acetic acid/sodium acetate, pH 4.7, aqueous buffer, pH 4.7, acetic acid/sodium acetate 2.0 M, 25° C., read-out: Solubility at 1 hr): 271 mg/mL
solubility at 1 h ([3]; USP buffer with acetic acid/sodium acetate, pH 4.8, aqueous buffer, pH 4.8, acetic acid/sodium acetate 1.0 M, 25° C., read-out: Solubility at 1 hr): 235 mg/mL
solubility at 1 h ([3]; USP buffer with acetic acid/sodium acetate, pH 5.7, aqueous buffer, pH 5.7, acetic acid/sodium acetate 1.0 M, 25° C., read-out: Solubility at 1 hr): 212 mg/mL
solubility at 1 h ([3]; USP buffer with acetic acid/sodium acetate, pH 5.9, aqueous buffer, pH 5.9, acetic acid/sodium acetate 2.0 M, 25° C., read-out: Solubility at 1 hr): 244 mg/mL
solubility at 1 h ([3]; USP buffer with acetic acid/sodium acetate, pH 6.9, aqueous buffer, pH 6.9, acetic acid/sodium acetate 1.0 M, 25° C., read-out: Solubility at 1 hr): 207 mg/mL
solubility at 1 h ([3]; USP buffer with acetic acid/sodium acetate, pH 6.9, aqueous buffer, pH 6.9, acetic acid/sodium acetate 2.0 M, 25° C., read-out: Solubility at 1 hr): 225 mg/mL
solubility at 1 h ([3]; USP buffer with acetic acid/sodium acetate, pH 7.7, aqueous buffer, pH 7.7, acetic acid/sodium acetate 1.0 M, 25° C., read-out: Solubility at 1 hr): 205 mg/mL
solubility at 1 h ([3]; USP buffer with acetic acid/sodium acetate, pH 7.8, aqueous buffer, pH 7.8, acetic acid/sodium acetate 2.0 M, 25° C., read-out: Solubility at 1 hr): 212 mg/mL
solubility at 1 h ([3]; USP buffer with acetic acid/sodium acetate, pH 8.2, aqueous buffer, pH 8.2, acetic acid/sodium acetate 0.5 M, 25° C., read-out: Solubility at 1 hr): 125 mg/mL
solubility at 1 h ([3]; USP buffer with acetic acid/sodium acetate, pH 8.9, aqueous buffer, pH 8.9, acetic acid/sodium acetate 0.5 M, 25° C., read-out: Solubility at 1 hr): 50 mg/mL
solubility at 1 h ([3]; USP buffer with acetic acid/sodium acetate, pH 8.9, aqueous buffer, pH 8.9, acetic acid/sodium acetate 1.0 M, 25° C., read-out: Solubility at 1 hr): 102 mg/mL
solubility at 1 h ([3]; USP buffer with acetic acid/sodium acetate, pH 9, aqueous buffer, pH 9.0, acetic acid/sodium acetate 2.0 M, 25° C., read-out: Solubility at 1 hr): 159 mg/mL
solubility at 1 h ([3]; acetic acid/sodium acetate buffer, pH 3, aqueous buffer, pH 3.0, acetic acid/sodium acetate 0.1 M, 25° C., read-out: Solubility at 1 hr): 20 mg/mL
solubility at 1 h ([3]; acetic acid/sodium acetate buffer, pH 3.8, aqueous buffer, pH 3.8, acetic acid/sodium acetate 0.1 M, 25° C., read-out: Solubility at 1 hr): 35 mg/mL
solubility at 1 h ([3]; acetic acid/sodium acetate buffer, pH 4.6, aqueous buffer, pH 4.6, acetic acid/sodium acetate 0.1 M, 25° C., read-out: Solubility at 1 hr): 36 mg/mL
solubility at 1 h ([3]; acetic acid/sodium acetate buffer, pH 4.7, aqueous buffer, pH 4.7, acetic acid/sodium acetate 0.5 M, 25° C., read-out: Solubility at 1 hr): 156 mg/mL
solubility at 1 h ([3]; acetic acid/sodium acetate buffer, pH 5.6, aqueous buffer, pH 5.6, acetic acid/sodium acetate 0.5 M, 25° C., read-out: Solubility at 1 hr): 123 mg/mL
solubility at 1 h ([3]; acetic acid/sodium acetate buffer, pH 6, aqueous buffer, pH 6.0, acetic acid/sodium acetate 0.1 M, 25° C., read-out: Solubility at 1 hr): 36 mg/mL
solubility at 1 h ([3]; acetic acid/sodium acetate buffer, pH 6.7, aqueous buffer, pH 6.7, acetic acid/sodium acetate 0.1 M, 25° C., read-out: Solubility at 1 hr): 31 mg/mL
solubility at 1 h ([3]; acetic acid/sodium acetate buffer, pH 6.8, aqueous buffer, pH 6.8, acetic acid/sodium acetate 0.5 M, 25° C., read-out: Solubility at 1 hr): 133 mg/mL
solubility at 1 h ([3]; acetic acid/sodium acetate buffer, pH 8.2, aqueous buffer, pH 8.2, acetic acid/sodium acetate 0.1 M, 25° C., read-out: Solubility at 1 hr): 31 mg/mL
solubility at 1 h ([3]; acetic acid/sodium acetate buffer, pH 9.4, aqueous buffer, pH 9.4, acetic acid/sodium acetate 0.1 M, 25° C., read-out: Solubility at 1 hr): 34 mg/mL
solubility at 1 h ([3]; acetic acid/sodium acetate ion mixtures, aqueous buffer, at acetate concentrations of 1.0 M and higher, read-out: solubility): > 200 mg/mL
solubility at 1 h ([4]; L-arginine mixtures, at L-arginine concentrations of 0.5 M and higher, read-out: solubility): > 200 mg/mL
solubility at 1 h ([4]; USP buffer with L-arginine, L-arginine 0.05 M, 25° C., read-out: Solubility at 1 hr): 39 mg/mL
solubility at 1 h ([4]; USP buffer with L-arginine, L-arginine 0.1 M, 25° C., read-out: Solubility at 1 hr): 82 mg/mL
solubility at 1 h ([4]; USP buffer with L-arginine, L-arginine 0.5 M, 25° C., read-out: Solubility at 1 hr): 226 mg/mL
solubility at 1 h ([5]; USP buffer with citric acid/sodium citrate, citric acid/sodium citrate 0.05 M, 25° C., read-out: Solubility at 1 hr): 121 mg/mL
solubility at 1 h ([5]; USP buffer with citric acid/sodium citrate, citric acid/sodium citrate 0.1 M, 25° C., read-out: Solubility at 1 hr): 159 mg/mL
solubility at 1 h ([5]; USP buffer with citric acid/sodium citrate, citric acid/sodium citrate 0.5 M, 25° C., read-out: Solubility at 1 hr): 240 mg/mL
solubility at 1 h ([5]; USP buffer with citric acid/sodium citrate, citric acid/sodium citrate 1.0 M, 25° C., read-out: Solubility at 1 hr): 245 mg/mL
solubility at 1 h ([5]; citric acid/sodium citrate ion mixtures, at citrate concentrations of 0.5 M and higher, read-out: solubility): > 200 mg/mL
solubility ([6]; USP buffers, 25 °C, over pH about 3 to about 8, 0.05 M): 25 to 36 mg/mL
solubility at 1 h ([6]; pH 1.2): 6 mg/mL
solubility at 3 h ([6]; pH 1.2): 6 mg/mL
solubility at 1 h ([6]; pH 1.9): 9 mg/mL
solubility at 3 h ([6]; pH 1.9): 9 mg/mL
solubility at 1 h ([6]; pH 2.9): 27 mg/mL
solubility at 3 h ([6]; pH 2.9): 27 mg/mL
solubility at 1 h ([6]; pH 3.7): 36 mg/mL
solubility at 3 h ([6]; pH 3.7): 29 mg/mL
solubility at 1 h ([6]; pH 5.3): 26 mg/mL
solubility at 3 h ([6]; pH 5.3): 26 mg/mL
solubility at 1 h ([6]; pH 5.9): 34 mg/mL
solubility at 3 h ([6]; pH 5.9): 29 mg/mL
solubility at 1 h ([6]; pH 7.3): 25 mg/mL
solubility at 3 h ([6]; pH 7.3): 24 mg/mL
solubility at 1 h ([6]; pH 8.0): 29 mg/mL
solubility at 3 h ([6]; pH 8.0): 24 mg/mL
solubility at 1 h ([6]; pH 9.0): 16 mg/mL
solubility at 3 h ([6]; pH 9.0): 12 mg/mL
solubility [7]: ~36 mg/mL
